Laboratory results taken from PubChem BioAssay AID288 (DTP/NCI, 2004).
Values joined by “and” are separate entries in the source; they are usually repeats but may differ in a detail not shown here. Equal values may be shown once. Inconclusive results are not listed.

System: BDF1 mice, M5076 sarcoma s.c., survival/tumor T/C
Assay: NCI In Vivo Anticancer Drug Screen. Data for tumor model Sarcoma M5076 (subcutaneous) in B6D2F1 (BDF1) mice
Protocol: The antitumor activity of compounds was measured in mice bearing transplantable tumors. Survival or tumor size were measured and the results are expressed as the measurement made in the treated group (T) divided by the measurement made in the vehicle treated control group (C). The tumor model used in this assay is Sarcoma M5076 (subcutaneous) in B6D2F1 (BDF1) mice

[1] = endpoint: median survival time, dose: 50.0 mg/kg/injection, schedule: Q01DX009 (ip), vehicle: saline with Tween-80, higher = longer survival
[2] = endpoint: median survival time, dose: 100.0 mg/kg/injection, schedule: Q01DX009 (ip), vehicle: saline with Tween-80, higher = longer survival
[3] = endpoint: median survival time, dose: 200.0 mg/kg/injection, schedule: Q01DX009 (ip), vehicle: saline with Tween-80, higher = longer survival

Compound: O=NN(CCCl)C(=O)NCCCl
- T/C (endpoint: median survival time, dose: 1.35 mg/kg/injection, schedule: Q04DX009 (ip), vehicle: saline with Tween-80, higher = longer survival): 108 % of control
- T/C (endpoint: median survival time, dose: 2.7 mg/kg/injection, schedule: Q02DX033 (ip), vehicle: saline, higher = longer survival): 233 % of control
- T/C (endpoint: median survival time, dose: 2.7 mg/kg/injection, schedule: Q04DX009 (ip), vehicle: saline with Tween-80, higher = longer survival): 121 % of control
- T/C (endpoint: median survival time, dose: 5.4 mg/kg/injection, schedule: Q02DX033 (ip), vehicle: saline, higher = longer survival): 171 % of control
- T/C (endpoint: median survival time, dose: 5.4 mg/kg/injection, schedule: Q04DX009 (ip), vehicle: saline with Tween-80, higher = longer survival): 254 % of control
- T/C (endpoint: median survival time, dose: 6.0 mg/kg/injection, schedule: Q01DX009 (ip), vehicle: saline + alcohol, higher = longer survival): 159 % of control
- T/C (endpoint: median survival time, dose: 10.8 mg/kg/injection, schedule: Q04DX009 (ip), vehicle: saline with Tween-80, higher = longer survival): 238 % of control
- T/C (endpoint: median tumor weight (est.), dose: 1.5 mg/kg/injection, schedule: Q01DX009 (ip), vehicle: saline + alcohol, higher = larger tumour): 25 % of control

Compound: Cc1cc(-c2ccc(NC(=O)Nc3cccc(F)c3)c(C)c2)ccc1NC(=O)Nc1cccc(F)c1
- T/C [1]: 110 % of control
- T/C [2]: 102 % of control
- T/C [3]: 104 % of control
- T/C (endpoint: median tumor weight (est.), dose: 50.0 mg/kg/injection, schedule: Q01DX009 (ip), vehicle: saline with Tween-80, higher = larger tumour): 107 % of control
- T/C (endpoint: median tumor weight (est.), dose: 100.0 mg/kg/injection, schedule: Q01DX009 (ip), vehicle: saline with Tween-80, higher = larger tumour): 84 % of control
- T/C (endpoint: median tumor weight (est.), dose: 200.0 mg/kg/injection, schedule: Q01DX009 (ip), vehicle: saline with Tween-80, higher = larger tumour): 70 % of control

Compound: COC12C(COC(N)=O)C3=C(C(=O)C(C)=C(N)C3=O)N1CC1C2N1C (stereo not given)
- T/C (endpoint: mean tumor weight, dose: 1.5 mg/kg/injection, schedule: Q02DX011 (ip), vehicle: saline, higher = larger tumour): 59 % of control
- T/C (endpoint: mean tumor weight, dose: 3.0 mg/kg/injection, schedule: Q02DX011 (ip), vehicle: saline, higher = larger tumour): 51 % of control
- T/C (endpoint: mean tumor weight, dose: 6.0 mg/kg/injection, schedule: Q02DX011 (ip), vehicle: saline, higher = larger tumour): 2 % of control
- T/C (endpoint: median tumor weight (est.), dose: 1.5 mg/kg/injection, schedule: Q02DX011 (ip), vehicle: saline, higher = larger tumour): 65 % of control
- T/C (endpoint: median tumor weight (est.), dose: 3.0 mg/kg/injection, schedule: Q02DX011 (ip), vehicle: saline, higher = larger tumour): 49 % of control and 53 % of control
- T/C (endpoint: median tumor weight (est.), dose: 6.0 mg/kg/injection, schedule: Q02DX011 (ip), vehicle: saline, higher = larger tumour): 1 % of control

Compound: OC(CBr)C(O)C(O)C(O)CBr (stereo not given)
- T/C (endpoint: mean tumor weight, dose: 37.5 mg/kg/injection, schedule: Q02DX011 (ip), vehicle: Klucel (hydroxypropylcellulose) (HPC), higher = larger tumour): 66 % of control
- T/C (endpoint: mean tumor weight, dose: 75.0 mg/kg/injection, schedule: Q02DX011 (ip), vehicle: Klucel (hydroxypropylcellulose) (HPC), higher = larger tumour): 63 % of control
- T/C (endpoint: mean tumor weight, dose: 150.0 mg/kg/injection, schedule: Q02DX011 (ip), vehicle: Klucel (hydroxypropylcellulose) (HPC), higher = larger tumour): 52 % of control
- T/C (endpoint: median survival time, dose: 30.0 mg/kg/injection, schedule: Q04DX009 (ip), vehicle: saline with Tween-80, higher = longer survival): 108 % of control
- T/C (endpoint: median survival time, dose: 60.0 mg/kg/injection, schedule: Q02DX033 (ip), vehicle: saline with Tween-80, higher = longer survival): 112 % of control
- T/C (endpoint: median survival time, dose: 60.0 mg/kg/injection, schedule: Q04DX009 (ip), vehicle: saline with Tween-80, higher = longer survival): 108 % of control
- T/C (endpoint: median survival time, dose: 120.0 mg/kg/injection, schedule: Q02DX033 (ip), vehicle: saline with Tween-80, higher = longer survival): 158 % of control
- T/C (endpoint: median survival time, dose: 120.0 mg/kg/injection, schedule: Q04DX009 (ip), vehicle: saline with Tween-80, higher = longer survival): 112 % of control
- T/C (endpoint: median tumor weight (est.), dose: 37.5 mg/kg/injection, schedule: Q02DX011 (ip), vehicle: Klucel (hydroxypropylcellulose) (HPC), higher = larger tumour): 75 % of control
- T/C (endpoint: median tumor weight (est.), dose: 75.0 mg/kg/injection, schedule: Q02DX011 (ip), vehicle: Klucel (hydroxypropylcellulose) (HPC), higher = larger tumour): 90 % of control
- T/C (endpoint: median tumor weight (est.), dose: 150.0 mg/kg/injection, schedule: Q02DX011 (ip), vehicle: Klucel (hydroxypropylcellulose) (HPC), higher = larger tumour): 72 % of control

Compound: NC1=NC(O)C=C1 (stereo not given)
- T/C (endpoint: median survival time, dose: 5.0 mg/kg/injection, schedule: Q01DX009 (ip), vehicle: saline, higher = longer survival): 103 % of control
- T/C (endpoint: median survival time, dose: 10.0 mg/kg/injection, schedule: Q01DX009 (ip), vehicle: saline, higher = longer survival): 96 % of control
- T/C (endpoint: median survival time, dose: 20.0 mg/kg/injection, schedule: Q01DX009 (ip), vehicle: saline, higher = longer survival): 94 % of control
- T/C (endpoint: median survival time, dose: 40.0 mg/kg/injection, schedule: Q01DX009 (ip), vehicle: saline, higher = longer survival): 96 % of control
- T/C (endpoint: median survival time, dose: 80.0 mg/kg/injection, schedule: Q01DX009 (ip), vehicle: saline, higher = longer survival): 103 % of control
- T/C (endpoint: median tumor weight (est.), dose: 5.0 mg/kg/injection, schedule: Q01DX009 (ip), vehicle: saline, higher = larger tumour): 115 % of control
- T/C (endpoint: median tumor weight (est.), dose: 10.0 mg/kg/injection, schedule: Q01DX009 (ip), vehicle: saline, higher = larger tumour): 63 % of control
- T/C (endpoint: median tumor weight (est.), dose: 20.0 mg/kg/injection, schedule: Q01DX009 (ip), vehicle: saline, higher = larger tumour): 169 % of control
- T/C (endpoint: median tumor weight (est.), dose: 40.0 mg/kg/injection, schedule: Q01DX009 (ip), vehicle: saline, higher = larger tumour): 96 % of control
- T/C (endpoint: median tumor weight (est.), dose: 80.0 mg/kg/injection, schedule: Q01DX009 (ip), vehicle: saline, higher = larger tumour): 68 % of control

Compound: CC1(C)COCN1COCCOCN1COCC1(C)C
- T/C (endpoint: median survival time, dose: 50.0 mg/kg/injection, schedule: Q04DX003 (ip), vehicle: saline, higher = longer survival): 103 % of control
- T/C (endpoint: median survival time, dose: 100.0 mg/kg/injection, schedule: Q04DX003 (ip), vehicle: saline, higher = longer survival): 95 % of control

Compound: O=[N+]([O-])c1ccc(CSc2ncnc3c2ncn3C2OC(COP(=O)(O)O)C(O)C2O)cc1 (stereo not given)
- T/C (endpoint: median survival time, dose: 64.8 mg/kg/injection, schedule: Q01DX005 (ip), vehicle: saline, higher = longer survival): 115 % of control and 118 % of control

Compound: O=NN(CCCl)C(=O)NC1CCC(=O)NC1=O (stereo not given)
- T/C (endpoint: median survival time, dose: 2.0 mg/kg/injection, schedule: Q01DX009 (ip), vehicle: saline + alcohol, higher = longer survival): 170 % of control
- T/C (endpoint: median survival time, dose: 4.0 mg/kg/injection, schedule: Q01DX009 (ip), vehicle: saline + alcohol, higher = longer survival): 208 % of control
- T/C (endpoint: median survival time, dose: 8.0 mg/kg/injection, schedule: Q01DX009 (ip), vehicle: saline + alcohol, higher = longer survival): 86 % of control

Compound: COC(=N)CCCCC(=N)OC
- T/C (endpoint: median survival time, dose: 50.0 mg/kg/injection, schedule: Q01DX009 (ip), vehicle: saline, higher = longer survival): 98 % of control
- T/C (endpoint: median survival time, dose: 100.0 mg/kg/injection, schedule: Q01DX009 (ip), vehicle: saline, higher = longer survival): 98 % of control
- T/C (endpoint: median survival time, dose: 200.0 mg/kg/injection, schedule: Q01DX009 (ip), vehicle: saline, higher = longer survival): 98 % of control
- T/C (endpoint: median tumor weight (est.), dose: 50.0 mg/kg/injection, schedule: Q01DX009 (ip), vehicle: saline, higher = larger tumour): 87 % of control
- T/C (endpoint: median tumor weight (est.), dose: 100.0 mg/kg/injection, schedule: Q01DX009 (ip), vehicle: saline, higher = larger tumour): 86 % of control

Compound: S=c1nc[nH]c2nc[nH]c12
- T/C (endpoint: median survival time, dose: 12.5 mg/kg/injection, schedule: Q04DX006 (ip), vehicle: saline with Tween-80, higher = longer survival): 99 % of control
- T/C (endpoint: median survival time, dose: 25.0 mg/kg/injection, schedule: Q04DX006 (ip), vehicle: saline with Tween-80, higher = longer survival): 111 % of control
- T/C (endpoint: median survival time, dose: 50.0 mg/kg/injection, schedule: Q02DX033 (ip), vehicle: saline with Tween-80, higher = longer survival): 107 % of control
- T/C (endpoint: median survival time, dose: 50.0 mg/kg/injection, schedule: Q04DX006 (ip), vehicle: saline with Tween-80, higher = longer survival): 105 % of control
- T/C (endpoint: median survival time, dose: 100.0 mg/kg/injection, schedule: Q04DX006 (ip), vehicle: saline with Tween-80, higher = longer survival): 111 % of control

Compound: C=C1C(O)C2OC3(CCC(/C=C/C(C)C4CC5(C)SC5C5(OC(CC(C)(O)C(=O)O)CCC5O)O4)O3)CCC2OC1C(O)CC(C)C1OC2(CCCCO2)CCC1C (stereo not given)
- T/C (endpoint: median survival time, dose: 1.25 micrograms/kg/injection, schedule: Q01DX009 (ip), vehicle: saline + alcohol, higher = longer survival): 101 % of control
- T/C (endpoint: median survival time, dose: 2.5 micrograms/kg/injection, schedule: Q01DX009 (ip), vehicle: saline + alcohol, higher = longer survival): 96 % of control
- T/C (endpoint: median survival time, dose: 5.0 micrograms/kg/injection, schedule: Q01DX009 (ip), vehicle: saline + alcohol, higher = longer survival): 108 % of control
- T/C (endpoint: median survival time, dose: 10.0 micrograms/kg/injection, schedule: Q01DX009 (ip), vehicle: saline + alcohol, higher = longer survival): 96 % of control
- T/C (endpoint: median tumor weight (est.), dose: 1.25 micrograms/kg/injection, schedule: Q01DX009 (ip), vehicle: saline + alcohol, higher = larger tumour): 107 % of control
- T/C (endpoint: median tumor weight (est.), dose: 2.5 micrograms/kg/injection, schedule: Q01DX009 (ip), vehicle: saline + alcohol, higher = larger tumour): 77 % of control
- T/C (endpoint: median tumor weight (est.), dose: 5.0 micrograms/kg/injection, schedule: Q01DX009 (ip), vehicle: saline + alcohol, higher = larger tumour): 92 % of control

Compound: [N-]=[N+]=CC(=O)CCC(N)C(=O)O (stereo not given)
- T/C (endpoint: median survival time, dose: 1.0 mg/kg/injection, schedule: Q04DX005 (ip), vehicle: saline, higher = longer survival): 150 % of control and 159 % of control
- T/C (endpoint: median survival time, dose: 2.0 mg/kg/injection, schedule: Q04DX005 (ip), vehicle: saline, higher = longer survival): 166 % of control and 167 % of control
- T/C (endpoint: median survival time, dose: 4.0 mg/kg/injection, schedule: Q04DX005 (ip), vehicle: saline, higher = longer survival): 181 % of control and 183 % of control
- T/C (endpoint: median survival time, dose: 8.0 mg/kg/injection, schedule: Q04DX005 (ip), vehicle: saline, higher = longer survival): 186 % of control and 188 % of control
- T/C (endpoint: median survival time, dose: 16.0 mg/kg/injection, schedule: Q04DX005 (ip), vehicle: saline, higher = longer survival): 98 % of control

Compound: CCOc1cc(/C=N/NC(=O)N(c2ccccc2)c2ccccc2)ccc1O
- T/C [1]: 98 % of control
- T/C [2]: 99 % of control
- T/C [3]: 92 % of control

Compound: NC(=O)c1cc(N2CC2)c([N+](=O)[O-])cc1[N+](=O)[O-]
- T/C (endpoint: median survival time, dose: 64.0 mg/kg/injection, schedule: Q01DX001 (ip), vehicle: saline, higher = longer survival): 103 % of control (2×) and 97 % of control
- T/C (endpoint: median survival time, dose: 80.0 mg/kg/injection, schedule: Q01DX001 (ip), vehicle: saline, higher = longer survival): 95 % of control
- T/C (endpoint: median survival time, dose: 100.0 mg/kg/injection, schedule: Q01DX001 (ip), vehicle: saline, higher = longer survival): 106 % of control and 110 % of control and 95 % of control
